# What was measured:
# SKBR-3 cells = test: HER2 ECD ELISA of conditioned media (HER2 shedding), SKBR-3 cells; type: cell-based, human
# Experimental: BT 474, MCF-7, and SKBR-3 cells were maintained in high-glucose DMEM:Ham's F12 (50:50) supplemented with 10% heat-inactivated FBS and 2 mM L-Glutamine. […] Cell lines were maintained at 37° C. in a humidified incubator supplied with 5% CO2. BT 474 and SKBR-3 cells were transiently transfected with constructs as described by electroporation using kit V according to the manufacturer's instructions (AMAXA™).
# Serum was diluted 1:50 using assay buffer (PBS/0.5% BSA, 0.05% TWEEN® 20/10 ppm PROCLIN® 300/0.2% BGG/0.25% CHAPS/0.15 M NaCl/5mM EDTA (pH 7.4) followed by additional 1:2 serial dilutions. Shed HER2 was captured using a goat anti-HER2 polyclonal antibody (Genentech) onto NUNC® Maxisorp plates and detected using a biotin-conjugated rabbit anti-HER2 polyclonal antibody (Genentech) followed by a AMDEX™-strepavidin-horseradish peroxidase antibody (Amersham Pharmacia Biotech) following a procedure described previously (Sias et al., J. Immunol. Meth. 109:219-27 (1990)). For cell culture experiments, cells were treated as indicated and conditioned media was collected and diluted in assay buffer serially 1:2. The concentration of shed HER2 in serum or in conditioned media was determined from a four-parameter fit of a standard curve using purified recombinant HER2 ECD protein (Genentech) as a standard.
# The pSIREN shRNA construct(s) or vector alone were transiently transfected into SKBR-3 and BT 474 cells using AMAXA™ kit V following manufacturer's recommendations. After 48 hours, conditioned media was collected and assayed for shed HER2 by HER2 ELISA and the cells were lysed directly on the plate using 2×Sample buffer.
# Fo5 tumors = test: GM6001 injections in FVB mice with Fo5 xenograft tumors (serum HER2 ECD ELISA, p95 HER2 Western blot); type: in vivo, mouse; conditions: 100 mg/kg intraperitoneally daily for 3 days, day four
# Source text: The Fo5 and f2: 1282 lines have been previously described (Finkle et al., Clin. Cancer Res. 10: 2499-2511 (2004)). These lines were derived from primary tumors from a MMTV HER2 transgenic mouse and passaged in the mammary fat pad of FVB mice.
# Fo5 tumors were transplanted into FVB mice and allowed to grow to an average size of 400-600 mm^3 prior to initiating the study. GM6001 (3-[N-hydroxycarbomyl]-[2R]-isobutylpropionyl-L-tryptophan methylamide) was obtained from Calbiochem and reconstituted in a slurry of 4% carboxymethylcellulose/0.9% PBS and administered daily by intraperitoneal injection at 100 mg/kg body weight for 3 days. […] Tumors size was measured at day 0 and at day 4. […]
# Serun from mice harboring Fo5 or f2: 1282 xenograft tumors was collected by cardiac puncture and HER2 ECD levels detected using a previously described HER2 ELISA (Finkle et al. Clin. Cancer Res. 10: 2499-2511 (2004)). […] The concentration of shed HER2 in serum or in conditioned media was determined from a four-parameter fit of a standard curve using purified recombinant HER2 ECD protein (Genentech) as a standard.
# Fo5 and f2:1282 tumors were resuspended in lysis buffer with protease inhibitors and homogenized using a POLYTRON TISSUEMIZER™ (PT2 100) on ice. Tumor lysates were cleared of insoluble material by centrifugation and total protein levels were determined using a BCA protein assay kit. […]
# [1] = test system: breast carcinoma cell lines; conditions: cited from earlier work
compound,measurement,setting,value
"CNC(=O)[C@H](Cc1c[nH]c2ccccc12)NC(=O)[C@@H](CC(=O)NO)CC(C)C [GM6001, 3-[N-hydroxycarbomyl]-[2R]-isobutylpropionyl-L-tryptophan methylamide]",inhibition of HER2 shedding (HER2 ECD ELISA),SKBR-3 cells; dose response,dose dependently inhibited HER2 shedding
same,amount of p95 HER2 in tumor lysates compared to control animals,Fo5 tumors,significant reduction
same,serum HER2 ECD levels,Fo5 tumors; versus vehicle,greater reduction
CNC(=O)[C@H](Cc1ccccc1)NC(=O)[C@H](CC(C)C)[C@H](CSc1cccs1)C(=O)NO [BB-94],inhibition of HER2 ECD shedding,[1],inhibited HER2 ECD shedding
Timp-1: naturally occurring peptides that regulate metalloprotease activity,HER2 ECD levels in conditioned media,SKBR-3 cells; 1 μg/ml,reduced HER2 ECD levels
